From article PMC7650622, “3D-Printed Bubble-Free Perfusion Cartridge System for Live-Cell Imaging” (Sensors (Basel, Switzerland), 2020)

Target: T1, Or13a cells (OR from Drosophila melanogaster with Orco) (Drosophila melanogaster, UniProt Q9VXL0)
T1 construct: with Odorant receptor coreceptor
T1 sequence (Q9VXL0 1-418): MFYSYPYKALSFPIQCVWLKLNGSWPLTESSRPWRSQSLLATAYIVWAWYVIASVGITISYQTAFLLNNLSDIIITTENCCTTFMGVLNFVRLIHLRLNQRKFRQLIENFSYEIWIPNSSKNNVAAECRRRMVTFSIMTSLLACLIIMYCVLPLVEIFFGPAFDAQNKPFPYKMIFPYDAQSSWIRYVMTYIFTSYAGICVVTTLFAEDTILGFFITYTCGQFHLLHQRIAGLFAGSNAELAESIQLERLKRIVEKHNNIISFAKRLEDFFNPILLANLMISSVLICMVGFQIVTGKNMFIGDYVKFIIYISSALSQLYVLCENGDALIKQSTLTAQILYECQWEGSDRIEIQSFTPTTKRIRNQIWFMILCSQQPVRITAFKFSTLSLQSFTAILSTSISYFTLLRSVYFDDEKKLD
T1 sequence (Q9VNB5 1-486 partner): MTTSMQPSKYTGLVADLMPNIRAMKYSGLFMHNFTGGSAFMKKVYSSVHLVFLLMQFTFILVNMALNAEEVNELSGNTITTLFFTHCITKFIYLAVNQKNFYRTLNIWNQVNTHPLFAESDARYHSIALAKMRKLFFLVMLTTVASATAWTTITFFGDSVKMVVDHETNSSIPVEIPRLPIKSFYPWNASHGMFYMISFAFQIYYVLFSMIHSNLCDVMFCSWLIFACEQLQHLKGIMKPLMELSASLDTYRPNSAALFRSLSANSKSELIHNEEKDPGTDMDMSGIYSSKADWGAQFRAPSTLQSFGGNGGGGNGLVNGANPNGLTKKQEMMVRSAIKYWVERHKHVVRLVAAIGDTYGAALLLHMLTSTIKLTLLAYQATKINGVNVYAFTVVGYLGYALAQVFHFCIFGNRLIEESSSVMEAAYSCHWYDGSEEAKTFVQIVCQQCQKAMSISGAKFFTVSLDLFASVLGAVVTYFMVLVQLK
Assay: GCaMP6s calcium imaging of Sf21 cells, dose-response
Format: cell-based

## C=CC(O)CCCCC (stereo not shown) [1-octen-3-ol]
  EC50: 8.37 µM
